Assay: mn = molality of the nth substance listed, in mol/kg
Settings: 101 kPa, Liquid, Pycnometric method

Cl.N[C@@H](CCC(=O)O)C(=O)O [L-glutamic acid hydrochloride] + O
mass density [kg/m3]
Settings	m1 = 0.01009	m1 = 0.02021	m1 = 0.02997	m1 = 0.03992	m1 = 0.05011	m1 = 0.06005
298.15 K	1000	1000.9	1001.6	1002.3	1002.9	1003.6
303.15 K	998.9	999.9	1000.6	1001.2	1001.8	1002.4
308.15 K	997.6	998.7	999.4	1000	1000.6	1001.1
313.15 K	996.1	997.3	998	998.6	999.2	999.8

From the NIST ThermoML archive (doi:10.1007/s10765-015-2009-x)
